Laboratory results as given in paper PMC8286840, “Identifying SARS-CoV-2 antiviral compounds by screening for small molecule inhibitors of Nsp3 papain-like protease” (Biochemical Journal, 2021).
Structures can show the parent of a compound that is named as a salt. Where two headings read alike, the source gives them in different places.

Assays:
[1] = biological target: T1, SARS-CoV-2 PLpro (nsp3 1564–1878) (Severe acute respiratory syndrome coronavirus 2, UniProt P0DTD1); test: biochemical; set-up: FRET-quenched peptide (Pro3) cleavage by PLpro, 10 min pre-incubation, slope over 20 min, normalised to no-compound control; settings: high concentration screen, read-out: % of control remaining
[2] = biological target: T1, SARS-CoV-2 PLpro (nsp3 1564–1878); test: biochemical; set-up: FRET-quenched peptide (Pro3) cleavage by PLpro, 10 min pre-incubation, slope over 20 min, normalised to no-compound control; settings: low concentration screen, read-out: % of control remaining

Work on `N#C/C(=C\c1ccc(O)c(O)c1)C(=O)NCCCc1ccccc1` [Tyrphostin AG 555] yielded a remaining activity at 3.75 µM ([1]; Well no.=1337) of 98.7% and a remaining activity at 1.25 µM ([2]; Well no.=1337) of 101%.
For `O=C(Nc1ccc(O)cc1)c1ccccc1O` [Osalmid], the remaining activity at 3.75 µM ([1]; Well no.=8152) was 100% and the remaining activity at 1.25 µM ([2]; Well no.=8152) was 100%.
`COc1ncnc(NS(=O)(=O)c2ccc(N)cc2)c1OC` [Sulfadoxine] showed a remaining activity at 3.75 µM ([1]; Well no.=2287) of 92.6%, a remaining activity at 3.75 µM ([1]; Well no.=7358) of 98% and a remaining activity at 1.25 µM ([2]; Well no.=2287) of 97%. For the same compound, the remaining activity at 1.25 µM ([2]; Well no.=7358) was 95.6%.
For `CCCCCCCC/C=C\C/C=C\C/C=C\CCCC(=O)O` [5(Z), 8(Z), 11(Z)-Eicosatrienoic Acid], the remaining activity at 3.75 µM ([1]; Well no.=4303) was 103%, the remaining activity at 3.75 µM ([1]; Well no.=4594) was 100% and the remaining activity at 1.25 µM ([2]; Well no.=4303) was 104%. For the same compound, the remaining activity at 1.25 µM ([2]; Well no.=4594) was 98.9%.
For `CC1(C)C(=O)N(CCN2CCC(C(=O)c3ccc(F)cc3)CC2)c2ccccc21` [LY310762], the remaining activity at 3.75 µM ([1]; Well no.=7237) was 100% and the remaining activity at 1.25 µM ([2]; Well no.=7237) was 102%.
Compound `CCCN[C@H]1CCc2nc(N)sc2C1` [Pramipexole] has a remaining activity at 3.75 µM ([1]; Well no.=1983) of 104% and a remaining activity at 1.25 µM ([2]; Well no.=1983) of 101%.
`C=C1[C@H]2C[C@@]3([C@@H]1O)[C@@H](CC2=O)[C@]12[C@@H]4C[C@H]3[C@H]1N(CC)C[C@]4(C)CC[C@@H]2O` [Songorine] gave a remaining activity at 3.75 µM ([1]; Well no.=3203) of 102% and a remaining activity at 1.25 µM ([2]; Well no.=3203) of 102%.
For `NCCCCN` [Putrescine dihydrochloride], the remaining activity at 3.75 µM ([1]; Well no.=1205) was 102% and the remaining activity at 1.25 µM ([2]; Well no.=1205) was 103%.
`CC1(C)CCC[C@](C)([C@H]2CC[C@]3(C)[C@@H]2[C@H](O)C[C@@H]2[C@@]4(C)CC[C@H](O)C(C)(C)[C@@H]4CC[C@]23C)O1` [Panaxadiol] showed a remaining activity at 3.75 µM ([1]; Well no.=3739) of 99.1% and a remaining activity at 1.25 µM ([2]; Well no.=3739) of 100%.
`CC1CCN=C(N)S1` (racemic) gave a remaining activity at 3.75 µM ([1]; Well no.=12) of 106% and a remaining activity at 1.25 µM ([2]; Well no.=12) of 105%.
In the case of `COCCCCCCCCCCCC(=O)O` [12-Methoxydodecanoic acid], the remaining activity at 3.75 µM ([1]; Well no.=4262) is reported as 94.8%, the remaining activity at 3.75 µM ([1]; Well no.=4359) is reported as 97.3% and the remaining activity at 1.25 µM ([2]; Well no.=4262) is reported as 96%. For the same compound, the remaining activity at 1.25 µM ([2]; Well no.=4359) was 101%.
For `Cc1ncc([N+](=O)[O-])n1CC(O)CCl` (stereo not drawn) [Ornidazole], the remaining activity at 3.75 µM ([1]; Well no.=4939) was 97.6% and the remaining activity at 1.25 µM ([2]; Well no.=4939) was 101%.
Work on `[N-]=[N+]=N[C@H]1[C@@H](O)[C@H](n2cc(F)c(N)nc2=O)O[C@@H]1CO` [3'-Azido-3'-deoxy-5-fluorocytidine] yielded a remaining activity at 3.75 µM ([1]; Well no.=7910) of 95% and a remaining activity at 1.25 µM ([2]; Well no.=7910) of 96.3%.
In the case of `C=CCc1ccc(O)c(OC)c1` [Eugenol], the remaining activity at 3.75 µM ([1]; Well no.=4005) is reported as 96.7% and the remaining activity at 1.25 µM ([2]; Well no.=4005) is reported as 92.8%.
Work on `CC[C@@]1(O)C(=O)OCc2c1cc1n(c2=O)Cc2cc3c(CN(C)C)c(O)ccc3nc2-1` [Topotecan.HCl] yielded a remaining activity at 3.75 µM ([1]; Well no.=1964) of 97.5% and a remaining activity at 1.25 µM ([2]; Well no.=1964) of 98.5%.
`O=C(/C=C/c1ccc(O)cc1)CC(=O)/C=C/c1ccc(O)cc1` [Bis demethoxycurcumin] was tested, and the remaining activity at 3.75 µM ([1]; Well no.=3466) was 103% and the remaining activity at 1.25 µM ([2]; Well no.=3466) was 102%.
Work on `COc1ccc([C@@H]2CC(=O)c3c(O)cc(O[C@@H]4O[C@H](CO)[C@@H](O)[C@H](O)[C@H]4O[C@@H]4O[C@@H](C)[C@H](O)[C@@H](O)[C@H]4O)cc3O2)cc1O` [Neohesperidin] yielded a remaining activity at 3.75 µM ([1]; Well no.=3444) of 98.5% and a remaining activity at 1.25 µM ([2]; Well no.=3444) of 98.8%.
`OC[C@@H](O)[C@@H](O)CO` [meso-Erythritol] showed a remaining activity at 3.75 µM ([1]; Well no.=6547) of 106% and a remaining activity at 1.25 µM ([2]; Well no.=6547) of 107%.
Work on `O=c1ccc2cc3ccoc3cc2o1` [7H-furo[3,2-g]chromen-7-one] yielded a remaining activity at 3.75 µM ([1]; Well no.=5431) of 104% and a remaining activity at 1.25 µM ([2]; Well no.=5431) of 101%.
`c1ccc(/N=N/c2ccccc2)cc1` [Azobenzene] showed a remaining activity at 3.75 µM ([1]; Well no.=8080) of 101% and a remaining activity at 1.25 µM ([2]; Well no.=8080) of 102%.
With `CCCCC/C=C\C[C@@H](O)/C=C/C=C\CCC(=O)O` [Tetranor-12(R)-HETE] the remaining activity at 3.75 µM ([1]; Well no.=4563) was 97.6% and the remaining activity at 1.25 µM ([2]; Well no.=4563) was 97%.
`Nc1ccc(S(=O)(=O)Nc2ncccn2)cc1` [Sulfadiazine] gave a remaining activity at 3.75 µM ([1]; Well no.=2289) of 102%, a remaining activity at 3.75 µM ([1]; Well no.=7494) of 98.3% and a remaining activity at 1.25 µM ([2]; Well no.=2289) of 99.4%. For the same compound, the remaining activity at 1.25 µM ([2]; Well no.=7494) was 97.4%.
Work on `N#Cc1ccc(N2N=C3c4ccc(C(=O)O)cc4CC[C@@H]3[C@@H]2C2CCCC2)cc1Cl` [PF-03882845] yielded a remaining activity at 3.75 µM ([1]; Well no.=6063) of 94.4% and a remaining activity at 1.25 µM ([2]; Well no.=6063) of 96.4%.
`CCCCCN(CCCCC)C(=O)C(CCC(=O)O)NC(=O)c1ccc(Cl)c(Cl)c1` (stereo not drawn) [Lorglumide] showed a remaining activity at 3.75 µM ([1]; Well no.=2276) of 98.3% and a remaining activity at 1.25 µM ([2]; Well no.=2276) of 96.2%.
`O=C(O)Cc1ccccc1O` [2-Hydroxyphenylacetic acid] showed a remaining activity at 3.75 µM ([1]; Well no.=6307) of 107% and a remaining activity at 1.25 µM ([2]; Well no.=6307) of 104%.
Work on `CCCCCCCN(CC)CCCC(O)c1ccc(NS(C)(=O)=O)cc1` (stereo not drawn) [Ibutilide fumarate] yielded a remaining activity at 3.75 µM ([1]; Well no.=5096) of 102% and a remaining activity at 1.25 µM ([2]; Well no.=5096) of 93.1%.
`O=C1C=CC[C@@H]2[C@H]3CCCN4CCC[C@@H](CN12)[C@@H]34` [Sophocarpine] showed a remaining activity at 3.75 µM ([1]; Well no.=4870) of 101% and a remaining activity at 1.25 µM ([2]; Well no.=4870) of 99.5%.
`CC1=C(/C=C/C(C)=C/C=C/C(C)=C/C=O)C(C)(C)CCC1` [All-trans-retinal] gave a remaining activity at 3.75 µM ([1]; Well no.=7443) of 102% and a remaining activity at 1.25 µM ([2]; Well no.=7443) of 102%.
`CCCCCC(=O)/C=C/[C@@H]1[C@@H](C/C=C\CCCC(=O)O)[C@@H](O)C[C@H]1O` [15-keto-prostaglandin F2a] was tested, and the remaining activity at 3.75 µM ([1]; Well no.=4571) was 88.5% and the remaining activity at 1.25 µM ([2]; Well no.=4571) was 90.1%.
Compound `O=C1/C(=C/c2ccc(O)c(O)c2)Oc2c1ccc(O[C@@H]1O[C@H](CO)[C@@H](O)[C@H](O)[C@H]1O)c2O` [Maritimein] has a remaining activity at 3.75 µM ([1]; Well no.=3339) of 97.6% and a remaining activity at 1.25 µM ([2]; Well no.=3339) of 91.1%.
Compound `Cc1ccc2c(c1)[C@]13CCCC[C@@H]1[C@H](C2)N(C)CC3` [Dimemorfan (phosphate)] has a remaining activity at 3.75 µM ([1]; Well no.=8523) of 103% and a remaining activity at 1.25 µM ([2]; Well no.=8523) of 106%.
Work on `CCn1c(=O)c2c(nc(/C=C/c3ccc(OC)c(OC)c3)n2C)n(CC)c1=O` [Istradefylline] yielded a remaining activity at 3.75 µM ([1]; Well no.=6903) of 99.6%, a remaining activity at 3.75 µM ([1]; Well no.=8461) of 101% and a remaining activity at 1.25 µM ([2]; Well no.=6903) of 98.1%. For the same compound, the remaining activity at 1.25 µM ([2]; Well no.=8461) was 109%.
In the case of `O=C(O)COc1ccccc1C(Nc1ccccn1)c1cc(Cl)c2cccnc2c1O` (stereo not drawn) [Mcl1-IN-1], the remaining activity at 3.75 µM ([1]; Well no.=6880) is reported as 96.8% and the remaining activity at 1.25 µM ([2]; Well no.=6880) is reported as 99.8%.
With `CCOC(=O)c1c(C)n(C)c2ccc(O)cc12` [Mecarbinate] the remaining activity at 3.75 µM ([1]; Well no.=4756) was 95.8% and the remaining activity at 1.25 µM ([2]; Well no.=4756) was 98.2%.
